Source: patent US20230286983A1 (4E Therapeutics, Inc., priority 2020, published 2023)
Values joined by “and” are separate entries in the source; they are usually repeats but may differ in a detail not shown here. Equal values may be shown once. Read-outs that look alike come from different tables or passages of the source.

Legend:
[1] = system: eIF4E phosphorylation at Serine 209 in the human embryonic kidney (HEK) 293 cell line; experiment: eIF4E phosphorylation in HEK 293 cells (fluorescent plate reader); type: cell-based; conditions: Homo sapiens, HEK293, 2 h, eIF4E phosphorylation at Serine 209, 2 hours exposure
How it was run: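 HEK-293 cells were treated with compound for 2 h, then methanol-fixed and Triton-permeabilized. Ser209 phospho-eIF4E was stained with primary antibody (1:2000, overnight) and an Alexa Fluor 488 secondary. Fluorescence was normalized to DAPI, and IC50 was fitted from concentration-response data.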

[2] = target: MNK1 (Homo sapiens, UniProt Q9BUB5); experiment: MNK1 substrate phosphorylation assay; type: biochemical; conditions: recombinant human kinase
Chain of MNK1 (Q9BUB5 whole entry): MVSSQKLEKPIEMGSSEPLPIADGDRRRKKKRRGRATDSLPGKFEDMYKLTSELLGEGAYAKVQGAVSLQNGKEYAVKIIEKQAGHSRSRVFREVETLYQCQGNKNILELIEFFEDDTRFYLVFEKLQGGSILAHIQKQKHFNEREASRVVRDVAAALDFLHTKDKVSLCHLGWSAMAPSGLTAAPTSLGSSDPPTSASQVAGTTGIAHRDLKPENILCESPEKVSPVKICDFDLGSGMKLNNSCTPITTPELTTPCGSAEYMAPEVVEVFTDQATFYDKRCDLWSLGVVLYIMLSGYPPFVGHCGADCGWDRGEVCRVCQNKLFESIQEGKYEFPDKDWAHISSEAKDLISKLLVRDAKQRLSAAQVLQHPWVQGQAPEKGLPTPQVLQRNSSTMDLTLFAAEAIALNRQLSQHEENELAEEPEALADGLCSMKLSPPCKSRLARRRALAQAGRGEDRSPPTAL

[3] = target: MNK2 (Homo sapiens, UniProt Q9HBH9); experiment: MNK2 substrate phosphorylation assay; type: biochemical; conditions: recombinant human kinase
Chain of MNK2 (Q9HBH9 whole entry): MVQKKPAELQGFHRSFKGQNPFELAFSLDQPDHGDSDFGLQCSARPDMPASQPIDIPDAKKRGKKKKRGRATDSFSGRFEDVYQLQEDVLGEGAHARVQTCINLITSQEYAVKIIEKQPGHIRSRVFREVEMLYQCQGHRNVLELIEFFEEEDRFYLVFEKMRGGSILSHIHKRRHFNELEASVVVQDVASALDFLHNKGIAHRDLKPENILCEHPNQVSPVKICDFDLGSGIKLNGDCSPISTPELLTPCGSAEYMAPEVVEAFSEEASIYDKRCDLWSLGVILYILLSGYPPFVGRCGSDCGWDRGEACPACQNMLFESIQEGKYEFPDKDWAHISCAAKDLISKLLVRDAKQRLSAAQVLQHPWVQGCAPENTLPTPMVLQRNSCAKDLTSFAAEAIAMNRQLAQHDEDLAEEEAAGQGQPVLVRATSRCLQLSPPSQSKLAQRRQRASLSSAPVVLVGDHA

[4] = Brain to plasma ratio, 4ET-01-021 at 3.0 mg/kg PO; type: in vivo, male CD-1 mouse; conditions: for concentration at 2 h: oral, 3 mg/kg
[5] = Liver microsome stability, mouse; type: in vitro ADME; conditions: mouse, liver microsomes, mouse liver microsomes, Table 11b; read-out: T1/2
[6] = system: P-gp (human MDR1, ABCB1); experiment: MDCK-MDR1 permeability (blood brain barrier permeability); type: in vitro ADME, Canine; conditions: dog; for efflux ratio at 5 μM: MDCK-MDR1, 5 μM, read-out: Efflux ratio (ratio B-A/A-B); for Papp A→B at 5 μM: MDCK-MDR1, Apical to basolateral transport; for Papp A→B at 5 μM / Papp B→A at 5 μM: average of two experiments; for Papp B→A at 5 μM: MDCK-MDR1, Basolateral to apical transport
[7] = system: IL-6 evoked grimace; experiment: IL-6 evoked grimace test; type: in vivo, ICR mice
Procedure: Institute for Cancer Research (ICR) mice were used in these experiments. Mice were bred in house at University of Texas at Dallas and used at between 12 and 24 weeks of age. Mice were habituated to plexiglass boxes of approximately 4×6 inches in size with openable tops. Habituation took place over 2 days with animals exposed to the boxes for at least 30 min. A blinded observer scored baseline grimacing using the method previously described by Mogil and colleagues (Langford, et al., Coding of facial expressions of pain in the laboratory mouse. Nat Methods (2010) 7:447-449.). On test day, mice were given test compounds 1 hr prior to injection of interleukin 6 (human recombinant IL-6, R&D Systems) which was given at a dose of 0.1 ng in saline via an intraplantar injection as described previously (Moy et al. The MNK-eIF4E Signaling Axis Contributes to Injury-Induced Nociceptive Plasticity and the Development of Chronic Pain. J Neurosci (2017) 37:7481-7499.). Test compounds were given orally (PO) via a flexible oral gavage canula built for mice. 4ET-01-021 (10.0, 3.0, and 1.0 mg/kg) and 4ET-03-052B (10.0 mg/kg) are efficacious in the IL-6 evoked grimace test in mice. FIG. 5 depicts a comparison of effect size in the IL-6 evoked grimace test. Effect sizes were calculated per mouse by subtracting the baseline grimace score from the sum of the grimace scores for 1 and 3 hr time points. […] FIG. 6 is a graph showing the effect size in the IL-6 evoked grimace test vs. dose of 4ET-01-021.

[8] = Brain vs plasma concentration, 4ET-03-009 at 10 mg/kg; type: in vivo, mice; conditions: 10 mg/kg oral, 2 hours after dosing; for concentration at 2 hours: oral, 10 mg/kg
Procedure: In separate mice administered the same therapy, brain tissue was harvested 2 hours after dosing and brain concentration of the MNK inhibitor was measured by homogenizing brain tissue followed by LC-MS/MS analysis. Plasma concentration was measured as described above.

[9] = system: eIF4E phosphorylation at Serine 209 in the human osteosarcoma (U2OS) cell line; experiment: eIF4E phosphorylation in U2OS cells (fluorescent plate reader); type: cell-based; conditions: Homo sapiens, U2OS; eIF4E phosphorylation at Serine 209, 2 hours exposure
Procedure: The ability of MNK inhibitors described herein to inhibit eIF4E phosphorylation at Serine 209 in the human osteosarcoma (U2OS) cell line was tested by exposing the cells to compound for 2 hours and then measuring eIF4E phosphorylation with a phosphorylation-specific antibody in a fluorescent plate reader.

[10] = Liver microsome stability, rat; type: in vitro ADME; conditions: Rat liver microsomes (#)

For `CCC1=CC2(CCC1)NC(=O)c1c(C)cc(Nc3cc(N)ncn3)c(=O)n12` (stereo not drawn) [Compound 4ET-01-021, 6′-((6-Aminopyrimidin-4-yl)amino)-3-ethyl-8′-methyl-2′H-spiro[cyclohexane-1,3′-imidazo[1,5-a]pyridin]-2-ene-1′,5′-dione], the IC50 [1] was 6 nM, the IC50 [2] was 38.7 nM and the IC50 [3] was 5.8 nM. For the same compound, the “Tissue Homogenate Concentration” value ([4]; 2 hr, Brain, individual) was 17.6 ng/mL and 12.2 ng/mL, the “Plasma Concentration” value ([4]; 2 hr, Plasma, individual) was 0.462 µg/mL and 0.383 µg/mL and the Kp at 2 h ([4]; male, CD-1, mouse, 2 h post dosing, Brain, read-out: Mean tissue/plasma concentration ratio (B:P ratio)) was 0.142. For the same compound, the concentration at 2 h ([4]; male, CD-1, mouse, brain homogenate, 2 h, Brain, read-out: Mean (brain homogenate)) was 0.0148 µg/mL, the concentration at 2 h ([4]; male, CD-1, mouse, brain homogenate, 2 hr, Brain, individual, read-out: Tissue Homogenate Concentration) was 0.0145 µg/mL and the concentration at 2 h ([4]; male, CD-1, mouse, brain, 2 h, Brain, read-out: Mean Tissue) was 59.1 ng/g. It also gave a concentration at 2 h ([4]; male, CD-1, mouse, plasma, 2 h, Plasma, read-out: Mean (plasma)) of 0.416 µg/mL, a concentration at 2 h ([4]; male, CD-1, mouse, plasma, 2 hr, Plasma, individual, read-out: Plasma Concentration) of 0.404 µg/mL and a half-life [5] of 1.55 h. It also gave an efflux ratio at 5 μM [6] of 0.9, a Papp A→B at 5 μM [6] of 553 nm/s and a Papp B→A at 5 μM [6] of 520 nm/s. For the same compound, the ED50 ([7]; Mus musculus, PO, effect size vs. dose) was 0.4 mg/kg, the “efficacy in the IL-6 evoked grimace test” value ([7]; PO 1 hr prior to IL-6, 4ET-01-021 10.0, 3.0 and 1.0 mg/kg, 4ET-03-052B 10.0 mg/kg) was “efficacious” and the “effect size in the IL-6 evoked grimace test” value ([7]; sum of grimace scores at 1 and 3 hr minus baseline) was “statistically-significant effect sizes”.
In the case of `Cc1cc(Nc2cc(NC(=O)C3CC3)ncn2)c(=O)n2c1C(=O)NC21CCOCC1` [Compound 4ET-03-009, N-(6-((8-Methyl-1,5-dioxo-1,2′,3′,5,5′,6′-hexahydro-2H-spiro[imidazo[1,5-a]pyridine-3,4′-pyran]-6-yl)amino)pyrimidin-4-yl)cyclopropanecarboxamide], the IC50 [1] is reported as 1.7 nM, the brain entry [8] is reported as “enters the brain very poorly” and the “Tissue Homogenate Conc. n = 3” value ([8]; Brain, individual) is reported as 5.5 ng/mL and 7.28 ng/mL. For the same compound, the “Plasma Conc. n = 3” value ([8]; Plasma, individual) was 0.292 µg/mL and 0.337 µg/mL, the concentration at 2 hours ([8]; CD-1, mouse, brain homogenate, Brain, individual, read-out: Tissue Homogenate Conc. n = 3) was 0.00767 µg/mL and the concentration at 2 hours ([8]; CD-1, mouse, brain homogenate, Brain, read-out: Tissue Homogenate Conc. Mean) was 0.00682 µg/mL. For the same compound, the concentration at 2 hours ([8]; CD-1, mouse, brain, Brain, read-out: Mean Tissue) was 27.3 ng/g, the Kp at 2 hours ([8]; CD-1, mouse, brain/plasma, Brain, read-out: Mean Tissue/Plasma Conc. Ratio) was 0.083 and the concentration at 2 hours ([8]; CD-1, mouse, plasma, Plasma, individual, read-out: Plasma Conc. n = 3) was 0.357 µg/mL. It also gave a concentration at 2 hours ([8]; CD-1, mouse, plasma, Plasma, read-out: Plasma Conc. Mean) of 0.329 µg/mL, an IC50 [9] of 1.7 nM and an IC50 [2] of 31.3 nM. For the same compound, the IC50 [3] was 2.6 nM, the efflux ratio at 5 μM [6] was 4.6 and the Papp A→B at 5 μM [6] was 54 nm/s. It also gave a Papp B→A at 5 μM [6] of 250 nm/s, a microsomal CLint ([10]; read-out: CLint rodent) of 2.54 µL/min/mg and a half-life ([10]; read-out: Rodent liver microsomes t1/2) of 9.08 h.
